Values quoted from earlier work as cited in article PMC7395068, “The evolution of strategies to minimise the risk of human drug-induced liver injury (DILI) in drug discovery and development” (Archives of Toxicology, 2020).
Where two headings read alike, the source gives them in different places.

How the values were obtained:
[1] = cited from earlier work
[2] = system: HepG2 cells, primary human hepatocytes; settings: cited from earlier work
[3] = system: THLE-Null and THLE-3A4 cells; settings: In vitro Assay; ref Gustafsson 2014; cited from earlier work
[4] = system: human hepatocytes; settings: cited from earlier work
[5] = cited from earlier work; remark: listed apart in the source
[6] = cited from earlier work; remark: listed apart in the source
[7] = system: rBsep; settings: In vitro Assay; ref Dawson 2012; cited from earlier work
[8] = system: HepG2 cells; settings: In vitro Assay; ref Persson 2013; cited from earlier work
[9] = system: THLE or HepG2 cells, isolated mitochondria, BSEP; settings: cited from earlier work
[10] = system: PHH spheroids; settings: In vitro Assay; ref Vorrink 2018; cited from earlier work
[11] = system: HepG2 C3A spheroid, BSEP, Glu/Gal in HepG2 cells, bioactivation; settings: In vitro Assay; ref Williams 2019; cited from earlier work
[12] = system: PHH; settings: In vitro Assay; ref Proctor 2017; cited from earlier work
[13] = system: hLiMTs; settings: In vitro Assay; ref Proctor 2017; cited from earlier work
[14] = system: isolated mouse liver mitochondria; settings: In vitro Assay; ref Porceddu 2012; cited from earlier work
[15] = system: primary human hepatocytes, NIH3T3 fibroblasts, BSEP, CYP3A4; settings: In vitro Assay; ref Schadt 2015; cited from earlier work
[16] = system: HepG2 cells; settings: In vitro Assay; ref O'Brien 2006; cited from earlier work
[17] = In vitro Assay, ref Garside 2014

| Structure (SMILES) | Cluster 1-6 +VE Assay [2, 17] | THLE-Null [3] | THLE-Null/3A4 [3] | DILI Score (FDA) (1-8) ([6]; ref Chen 2011) | Inhibition of rBsep cutoff<1& cmax u>.2 [7] | Inhibition of rBsep cutoff<3 [7] | In vivo DILI ([1]; ref Aleo 2019) | In vivo DILI ([1]; ref Garside 2014) | In vivo DILI ([1]; ref Xu 2008) | DILI +VE (5-8), DILI -VE (-4) ([5]; ref Chen 2016) | DILI severity category ([5]; ref Chen 2016) | In vivo DILI ([1]; […]) | In vivo DILI ([1]; ref Gustafsson 2014) | Ro2 Hybrid HRM Score ([9]; In vitro Assay, ref Aleo 2019) | in vitro data EC2<=1x Cmax [14] | in vitro data EC20<=2uM [14] | Structural based (HCI) [16] | In vivo DILI ([1]; ref O'Brien 2006) | other results |
| --- | --- | --- | --- | --- | --- | --- | --- | --- | --- | --- | --- | --- | --- | --- | --- | --- | --- | --- | --- |
| COc1cc(C)c(/C=C/C(C)=C/C=C/C(C)=C/C(=O)O)c(C)c1C [acitretin] | +VE | +VE | +VE | 5 | -VE | +VE |  |  |  |  |  |  |  |  |  |  |  |  | In vivo DILI ([1]; in vivo): +VE; Structural based (HCI) [4]: -VE; DILI +VE (5-8), DILI -VE (-4) ([5]; in vivo): +VE; DILI severity category ([5]; in vivo): vMost-DILI-Concern |
| CC(O)(CS(=O)(=O)c1ccc(F)cc1)C(=O)Nc1ccc(C#N)c(C(F)(F)F)c1 (centres unmarked) [bicalutamide] | +VE |  |  | 8 |  |  | +VE | +VE | +VE | +VE | vMost-DILI-Concern |  |  |  |  |  |  |  | Cluser analysis [8]: -VE; Structural based (HCI) [8]: +VE; In vivo DILI ([1]; ref Persson 2013): +VE; Structural based (HCI) ([4]; In vitro Assay, ref Xu 2008): -VE |
| CCCNC(=O)NS(=O)(=O)c1ccc(Cl)cc1 [chlorpropamide] | -VE | -VE | -VE | 2 | -VE | -VE | +VE | +VE |  | +VE | vLess-DILI-Concern | +VE | +VE | +VE |  |  |  |  | In vivo DILI ([1]; ref Dawson 2012): +VE; Partition Hybrid HRM Score ([9]; In vitro Assay, ref Aleo 2019): -VE |
| CN(C)/N=N/c1[nH]cnc1C(N)=O [dacarbazine] | -VE | -VE | -VE | 6 |  |  | +VE | +VE |  | +VE | vMost-DILI-Concern | +VE | +VE | +VE |  |  |  |  | In vivo DILI ([1]; ref Vorrink 2018): +VE; hLiMTs ATP <20 x Cmax [10]: +VE (IC20 < 20 × Cmax.tot cut-off); Partition Hybrid HRM Score ([9]; In vitro Assay, ref Aleo 2019): -VE |
| CNCCCN1c2ccccc2CCc2ccccc21 [desipramine] |  |  |  | 3 |  |  |  |  | -VE | -VE | Ambiguous DILI-concern |  |  | +VE |  |  |  |  | Bayesian Machine Learning [11]: +VE; In vivo DILI ([1]; ref Proctor 2017): +VE; In vivo DILI ([1]; ref Schadt 2015): -VE; In vivo DILI ([1]; ref Williams 2019): +VE; PHH ATP <100uM [12]: +VE (IC50 threshold of 100 µM); hLiMTs ATP <100uM [13]: +VE (IC50 threshold of 100 µM) |
| CC(C)Cc1ccc(C(C)C(=O)O)cc1 (centres unmarked) [ibuprofen] |  | -VE |  |  | -VE | +VE |  |  |  |  |  |  |  |  | +VE | +VE | +VE |  | Structural based (HCI) [8]: +VE; DILI +VE (5-8), DILI -VE (-4) ([5]; in vivo): +VE; DILI severity category ([5]; in vivo): vLess-DILI-Concern; DILI Score (FDA) (1-8) ([6]; in vivo): 3; Cellular toxicity (3T3 cells) [15]: -VE; Combined Assay [15]: -VE; GSH adduct HML [15]: -VE; Hepatocyte cellular toxicity [15]: -VE; MitoTox 3T3 [15]: -VE; TDI CYP3A4 [15]: -VE; hBSEP inhibition [15]: -VE |
| CC1=C(/C=C/C(C)=C/C=C/C(C)=C\C(=O)O)C(C)(C)CCC1 [isotretinoin] | +VE |  |  | 2 |  |  |  | +VE | +VE | +VE | vMost-DILI-Concern |  |  |  |  |  | -VE | +VE | Structural based (HCI) ([4]; In vitro Assay, ref Xu 2008): +VE |
| C[C@](N)(Cc1ccc(O)c(O)c1)C(=O)O [methyldopa] | -VE | -VE | -VE | 8 | -VE | -VE |  | +VE |  | +VE | vMost-DILI-Concern | +VE | +VE |  | +VE | -VE | -VE | +VE | Cluser analysis [8]: -VE; Structural based (HCI) [8]: +VE; In vivo DILI ([1]; ref Dawson 2012): +VE; In vivo DILI ([1]; ref Persson 2013): +VE; In vivo DILI ([1]; ref Porceddu 2012): -VE |
| CNC(=C[N+](=O)[O-])NCCSCc1ccc(CN(C)C)o1 [ranitidine] |  | -VE |  | 5 | -VE | -VE | +VE | +VE | -VE | +VE | vLess-DILI-Concern | +VE | +VE | -VE | +VE | -VE |  |  | In vivo DILI ([1]; ref Dawson 2012): +VE; In vivo DILI ([1]; ref Porceddu 2012): +VE; Partition Hybrid HRM Score ([9]; In vitro Assay, ref Aleo 2019): -VE |
| CO[C@H]1/C=C/O[C@@]2(C)Oc3c(C)c(O)c4c(O)c(c(/C=N/N5CCN(C)CC5)c(O)c4c3C2=O)NC(=O)/C(C)=C\C=C\[C@H](C)[C@H](O)[C@@H](C)[C@@H](O)[C@@H](C)[C@H](OC(C)=O)[C@@H]1C [rifampin] | -VE |  |  | 8 |  |  | +VE | +VE |  | +VE | vMost-DILI-Concern | +VE |  | +VE |  |  |  |  | Partition Hybrid HRM Score ([9]; In vitro Assay, ref Aleo 2019): +VE |
| CC1=C(CC(=O)O)c2cc(F)ccc2/C1=C\c1ccc([S+](C)[O-])cc1 (centres unmarked) [sulindac] | -VE | -VE |  | 8 | +VE | +VE | +VE | +VE | +VE | +VE | vMost-DILI-Concern | +VE | +VE |  | +VE | +VE | +VE | +VE | Cluser analysis [8]: -VE; Structural based (HCI) [8]: -VE; In vivo DILI ([1]; ref Dawson 2012): +VE; In vivo DILI ([1]; ref Persson 2013): +VE; In vivo DILI ([1]; ref Porceddu 2012): +VE; In vivo DILI ([1]; ref Schadt 2015): +VE; Structural based (HCI) ([4]; In vitro Assay, ref Xu 2008): +VE; Cellular toxicity (3T3 cells) [15]: -VE; Combined Assay [15]: +VE; GSH adduct HML [15]: +VE; Hepatocyte cellular toxicity [15]: -VE; MitoTox 3T3 [15]: -VE; TDI CYP3A4 [15]: -VE; hBSEP inhibition [15]: -VE |
| CN(C/C=C/C#CC(C)(C)C)Cc1cccc2ccccc12 [terbinafine] | -VE | +VE | -VE | 8 |  |  |  | +VE |  | +VE | vMost-DILI-Concern |  | +VE |  | +VE | +VE | +VE | +VE | In vivo DILI ([1]; ref Porceddu 2012): +VE |
| CN(C)[C@@H]1C(O)=C(C(N)=O)C(=O)[C@@]2(O)C(O)=C3C(=O)c4c(O)cccc4[C@@](C)(O)[C@H]3C[C@@H]12 [tetracycline] |  |  |  |  |  |  |  |  |  |  |  |  |  |  |  |  |  |  | hLiMTs ATP <20 x Cmax [10]: +VE (IC20 < 20 × Cmax.tot cut-off); Cluster 1-6 +VE Assay [2]: -VE; Structural based (HCI) [4]: +VE; DILI +VE (5-8), DILI -VE (-4) ([5]; in vivo): +VE; DILI severity category ([5]; in vivo): vLess-DILI-Concern; DILI Score (FDA) (1-8) ([6]; in vivo): 2 |
| CN1CCN(CCCN2c3ccccc3Sc3ccc(C(F)(F)F)cc32)CC1 [trifluoperazine, reference compound] | +VE |  |  | 2 |  |  |  | +VE | +VE | -VE | Ambiguous DILI-concern |  |  |  |  |  | -VE | +VE | in vivo DILI classification in publications of Supplemental Table 1 ([1]; publications disagreeing with the LTKB classification, ref Supplemental Table 1 publications): DILI positive in vivo; In vivo DILI ([1]; ref Vorrink 2018): +VE; hLiMTs ATP <20 x Cmax [10]: -VE; Structural based (HCI) ([4]; In vitro Assay, ref Xu 2008): +VE |
| COc1ccc(C(CN(C)C)C2(O)CCCCC2)cc1 (centres unmarked) [venlafaxine] |  |  |  |  |  |  |  |  |  |  |  |  |  |  |  |  |  |  | Cluster 1-6 +VE Assay [2]: -VE; Partition Hybrid HRM Score [9]: +VE; Ro2 Hybrid HRM Score [9]: +VE; DILI +VE (5-8), DILI -VE (-4) ([5]; in vivo): +VE; DILI severity category ([5]; in vivo): vLess-DILI-Concern; DILI Score (FDA) (1-8) ([6]; in vivo): 7 |
